Article PMC8966755, “In Silico and In Vitro Screening of Natural Compounds as Broad-Spectrum β-Lactamase Inhibitors against Acinetobacter baumannii New Delhi Metallo-β-lactamase-1 (NDM-1)” (BioMed Research International, 2022)
Where two headings read alike, the source gives them in different places.

Columns and labels:
Recombinant NDM-1 enzyme = molecular target: T1, Recombinant NDM-1 enzyme (Klebsiella pneumoniae, UniProt C7C422); assay: biochemical
T1 construct: purchased RayBiotech Life 230-00554-500
Procedure: The NDM-1 enzyme inhibition assay was carried out spectrophotometrically using nitrocefin as a chromogenic substrate as described previously [27].
The natural compounds were incubated with NDM-1 enzyme, and the substrate, nitrocefin, and hydrolysis of the substrate were monitored at 490 nm OD.

β-lactamase = assay: β-Lactamase enzyme inhibitory activity assay; format: biochemical; settings: β-lactamase inhibition assay
Procedure: . The percent inhibitory curves for the candidate natural compounds with efficacy for NDM-1 and β-lactamase enzyme are given in Figures 5(a) and 5(b). The natural compounds were incubated with NDM-1 enzyme, and the substrate, nitrocefin, and hydrolysis of the substrate were monitored at 490 nm OD.
The eight candidate natural compounds identified by in silico analysis against NDM-1 were also tested for β-lactamase inhibition assay. […]

[1] = system: PAN resistance A. baumannii clinical isolate (strain number: P-29); assay: Checkerboard synergy titration assay with imipenem (FIC); format: cell-based; settings: compound 128 mg/L with imipenem; carbapenem-resistant A. baumannii clinical strain
Procedure: The combined effect of the natural compounds and imipenem (Zhejiang Hisun Pharmaceutical, China) was done using the checkerboard synergy titration assay in a 96-well microtitre plate. Imipenem was tested at concentrations of […] than their MIC and two dilutions higher than the MIC. MIC concentration of imipenem (4x) was added in all wells under column 1 of the 96-well checkerboard panel for each concentration of natural compounds (one each row). The compounds were serially diluted at different subinhibitory concentrations, and each concentration was added to the corresponding rows.
A FIC = 0.5 for a compound was taken as synergistic, FIC > 0.5 − 4 was additive/indifferent, and FIC > 4 was taken as antagonistic.
The checkerboard method was used to design the dilution panel, with twofold concentrations above the MIC of the antibiotics and MIC concentration and fivefold below the MIC.

[2] = 1 nM NDM-1, 10 μM ZnSO4, nitrocefin 60 μM, 490 nm, 30°C, compounds 10-100 μM, read-out: IC50 NDM-1 enzyme activity

T1 sequence (C7C422 29-270 limits assumed): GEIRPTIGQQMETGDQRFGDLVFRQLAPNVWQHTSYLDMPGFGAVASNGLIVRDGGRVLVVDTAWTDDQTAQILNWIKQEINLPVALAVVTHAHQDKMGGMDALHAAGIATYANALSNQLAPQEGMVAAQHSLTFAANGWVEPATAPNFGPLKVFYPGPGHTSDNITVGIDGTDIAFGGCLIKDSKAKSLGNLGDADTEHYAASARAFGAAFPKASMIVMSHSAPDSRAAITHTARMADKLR

Row | IC50 (Recombinant NDM-1 enzyme; [2]) [µM] | SMILES | IC50 (Recombinant NDM-1 enzyme) [µM] | IC50 (β-lactamase) [µM] | FIC index [1]
1 | – | O=c1c2cc(O)c(O)cc2oc2cc(O)c([C@@H]3O[C@H](CO)[C@@H](O)[C@H](O)[C@H]3O)c(O)c12 [Mangiferin] | 30.6 ± 4.41 | 58 ± 2.08 | 0.625
2 | 97.5 ± 5.59 | COc1c(O)cc2oc3cc(O)c(CC=C(C)C)c(O)c3c(=O)c2c1CC=C(C)C [Mangostin] | – | 136 ± 37.1 | –
3 | 48.9 ± 3.74 | C[C@@H]1O[C@@H](OC[C@H]2O[C@@H](Oc3c(-c4ccc(O)c(O)c4)oc4cc(O)cc(O)c4c3=O)[C@H](O)[C@@H](O)[C@@H]2O)[C@H](O)[C@H](O)[C@H]1O [Rutin] | – | 127 ± 15.9 | –
4 | – | CC1=C(CO)C(=O)O[C@@H]([C@@H](C)[C@H]2CC[C@H]3[C@@H]4C[C@H]5O[C@]56[C@@H](O)C=CC(=O)[C@]6(C)[C@H]4CC[C@]23C)C1 [Withaferin A] | 24 ± 2.92 | 32.8 ± 2.59 | 0.3125
5 | – | CC1(C)[C@H](C(=O)O)N2C(=O)C[C@H]2S1(=O)=O [sulbactam, reference compound] | – | 7.24 ± 0.392 | –
